From paper PMC10999543, “Identification of kinase modulators as host-directed therapeutics against intracellular methicillin-resistant Staphylococcus aureus” (Frontiers in Cellular and Infection Microbiology, 2024)
Like-named read-outs stand apart in the source and are kept apart here.

How the values were obtained:
[1] = test system: intracellular MRSA; assay type: cell-based, Staphylococcus aureus; conditions: for %GFP+ rep 1 / z-scoreMRSA+ rep 1: replicate 1; for %GFP+ rep 2 / z-scoreMRSA+ rep 2: replicate 2; for %GFP+ rep 3 / z-scoreMRSA+ rep 3: replicate 3; for z-scoreMRSA+ mean: mean of 3 replicates
In short: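 HeLa cells were infected with GFP-expressing MRSA (mean MOI 6.8) for 1 h, treated with 30 µg/ml gentamicin for 15 min, then incubated overnight at 37°C with kinase inhibitors and 5 µg/ml gentamicin. Flow cytometry gave % GFP-positive cells, with cell count as viability. Hits were z-score ≤ -2 (infection) and ≥ -3 (count) versus DMSO.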

[2] = test system: HeLa cells; experiment: Compound screen by flow cytometry: HeLa cell count as surrogate readout of cell viability (z-scoreHeLa); assay type: cell-based, human
In short: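 The viability surrogate was the count of fixed HeLa cells by flow cytometry, converted to z-scores against DMSO controls with values deviating two-fold excluded. Before counting, cells had been infected with MRSA for 1 h and cleared of extracellular bacteria with gentamicin. They were then exposed overnight to kinase inhibitors in triplicate.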

[3] = PKIS compound screen raw data, MRSA-infected HeLa cells
[4] = Yes/No: effect without cell death
[5] = compound screen, MRSA-infected HeLa cells
[6] = PKIS compound screen, MRSA-infected HeLa cells
[7] = PKIS compound screen, Yes/No call (effect without cell death)
[8] = PKIS compound screen, Yes/No call on z-scoreMRSA+
[9] = PKIS compound screen raw data, HeLa cell count, replicate 1
[10] = PKIS compound screen raw data, HeLa cell count, replicate 2
[11] = PKIS compound screen raw data, HeLa cell count, replicate 3
[12] = PKIS compound screen, HeLa cell count, mean of 3 replicates
[13] = PKIS compound screen, HeLa cell count, replicate 1
[14] = PKIS compound screen, HeLa cell count, replicate 2
[15] = PKIS compound screen, HeLa cell count, replicate 3
[16] = PKIS compound screen, Yes/No call on z-scoreHeLa
[17] = compound screen, HeLa cell count, mean of 3 replicates
[18] = compound screen, HeLa cell count, replicate 1
[19] = compound screen, HeLa cell count, replicate 2
[20] = compound screen, HeLa cell count, replicate 3
[21] = PKIS compounds raw data, MRSA-infected HeLa cells
[22] = PKIS compounds raw data, replicate 1, HeLa cell count
[23] = PKIS compounds raw data, replicate 2, HeLa cell count
[24] = PKIS compounds raw data, replicate 3, HeLa cell count
[25] = PKIS compound screen, Yes/No call

## O=C1Nc2ccc(I)cc2C1=Cc1cc(Br)c(O)c(Br)c1 [GW305074X]
[1]; [3]
  %GFP+ rep 1: 19.6%
  %GFP+ rep 2: 17.6%
  %GFP+ rep 3: 21.1%
[1]; Yes/No call from z-scoreMRSA+
  effect: No
[1]; [4]
  hit: No
[1]; [5]
  z-scoreMRSA+ mean: -0.96
  z-scoreMRSA+ rep 1: -1.32
  z-scoreMRSA+ rep 2: -1.22
  z-scoreMRSA+ rep 3: -0.33
[2]
  cell death: No
[2]; human
  cell count rep 1: 1595
  cell count rep 2: 1814
  cell count rep 3: 1196
  z-scoreHeLa mean: -2.15
  z-scoreHeLa rep 1: -1.99
  z-scoreHeLa rep 2: -1.91
  z-scoreHeLa rep 3: -2.55

## NS(=O)(=O)c1cccc(-c2cc3ccncc3cc2OCc2ccccc2)c1 [GSK980961A]
[1]; [3]
  %GFP+ rep 1: 13.7%
  %GFP+ rep 2: 14.8%
  %GFP+ rep 3: 15.5%
[1]; [6]
  z-scoreMRSA+ mean: -1.25
  z-scoreMRSA+ rep 1: -1.32
  z-scoreMRSA+ rep 2: -1.12
  z-scoreMRSA+ rep 3: -1.31
[1]; [7]
  hit: No
[1]; [8]
  effect: No
[2]; [9]
  cell count rep 1: 14876
[2]; [10]
  cell count rep 2: 28602
[2]; [11]
  cell count rep 3: 41262
[2]; [12]
  z-scoreHeLa mean: -0.61
[2]; [13]
  z-scoreHeLa rep 1: -0.80
[2]; [14]
  z-scoreHeLa rep 2: -1.15
[2]; [15]
  z-scoreHeLa rep 3: 0.12
[2]; [16]
  cell death: No

## Cn1cc(-c2ccc3c(c2)CCN3C(=O)Cc2cc(F)cc(C(F)(F)F)c2)c2c(N)ncnc21 [GSK2635225A]
[1]; [3]
  %GFP+ rep 1: 22.6%
  %GFP+ rep 2: 22.9%
  %GFP+ rep 3: 20.1%
[1]; Yes/No call from z-scoreMRSA+
  effect: No
[1]; [4]
  hit: No
[1]; [5]
  z-scoreMRSA+ mean: -0.39
  z-scoreMRSA+ rep 1: -0.62
  z-scoreMRSA+ rep 2: 0.07
  z-scoreMRSA+ rep 3: -0.63
[2]; [9]
  cell count rep 1: 4783
[2]; [10]
  cell count rep 2: 4290
[2]; [11]
  cell count rep 3: 4665
[2]; Yes/No call from z-scoreHeLa
  cell death: No
[2]; [17]
  z-scoreHeLa mean: -0.02
[2]; [18]
  z-scoreHeLa rep 1: 0.31
[2]; [19]
  z-scoreHeLa rep 2: -0.0088
[2]; [20]
  z-scoreHeLa rep 3: -0.36

## Cc1cc(N2Cc3ccccc3C2)nc(Nc2ccc(S(=O)(=O)N3CCOCC3)cc2)n1 [GSK1669917A]
[1]; [3]
  %GFP+ rep 1: 24.7%
  %GFP+ rep 2: 22.0%
  %GFP+ rep 3: 22.0%
[1]; Yes/No call from z-scoreMRSA+
  effect: No
[1]; [4]
  hit: No
[1]; [5]
  z-scoreMRSA+ mean: -0.11
  z-scoreMRSA+ rep 1: -0.13
  z-scoreMRSA+ rep 2: -0.15
  z-scoreMRSA+ rep 3: -0.06
[2]; [9]
  cell count rep 1: 5559
[2]; [10]
  cell count rep 2: 4564
[2]; [11]
  cell count rep 3: 5979
[2]; Yes/No call from z-scoreHeLa
  cell death: No
[2]; [17]
  z-scoreHeLa mean: 0.51
[2]; [18]
  z-scoreHeLa rep 1: 0.87
[2]; [19]
  z-scoreHeLa rep 2: 0.20
[2]; [20]
  z-scoreHeLa rep 3: 0.47

## O=C(O[C@H]1CN[C@H](C#Cc2cc3ncnc(Nc4ccc5c(cnn5Cc5ccccc5)c4)c3s2)C1)N1CCOCC1 [GSK200398A]
[1]; [3]
  %GFP+ rep 1: 12.7%
  %GFP+ rep 2: 13.5%
  %GFP+ rep 3: 14.0%
[1]; [6]
  z-scoreMRSA+ mean: -1.64
  z-scoreMRSA+ rep 1: -1.64
  z-scoreMRSA+ rep 2: -1.51
  z-scoreMRSA+ rep 3: -1.76
[1]; [7]
  hit: No
[1]; [8]
  effect: No
[2]; [9]
  cell count rep 1: 22424
[2]; [10]
  cell count rep 2: 29797
[2]; [11]
  cell count rep 3: 30147
[2]; [12]
  z-scoreHeLa mean: -0.74
[2]; [13]
  z-scoreHeLa rep 1: 0.35
[2]; [14]
  z-scoreHeLa rep 2: -0.93
[2]; [15]
  z-scoreHeLa rep 3: -1.65
[2]; [16]
  cell death: No

## COC(=O)Nc1nc2ccc(Oc3ccc(NC(=O)Nc4cc(C(F)(F)F)ccc4F)cc3)cc2n1C [GW692089A]
[1]; [3]
  %GFP+ rep 1: 16.9%
  %GFP+ rep 2: 18.4%
  %GFP+ rep 3: 19.6%
[1]; [6]
  z-scoreMRSA+ mean: -0.41
  z-scoreMRSA+ rep 1: -0.50
  z-scoreMRSA+ rep 2: -0.28
  z-scoreMRSA+ rep 3: -0.45
[1]; [7]
  hit: No
[1]; [8]
  effect: No
[2]; [9]
  cell count rep 1: 28483
[2]; [10]
  cell count rep 2: 25969
[2]; [11]
  cell count rep 3: 19864
[2]; [12]
  z-scoreHeLa mean: 0.00395
[2]; [13]
  z-scoreHeLa rep 1: -0.29
[2]; [14]
  z-scoreHeLa rep 2: 0.12
[2]; [15]
  z-scoreHeLa rep 3: 0.18
[2]; [16]
  cell death: No

## Cc1ccc2c(c1)C(=NNc1ccc(S(N)(=O)=O)cc1)C(=O)N2 [GW275944X]
[1]; [21]
  %GFP+ rep 1: 14.2%
  %GFP+ rep 2: 14.3%
  %GFP+ rep 3: 12.8%
[1]; Yes/No call from z-scoreMRSA+
  effect: No
[1]; [4]
  hit: No
[1]; [5]
  z-scoreMRSA+ mean: -0.10
  z-scoreMRSA+ rep 1: 0.33
  z-scoreMRSA+ rep 2: 0.27
  z-scoreMRSA+ rep 3: -0.91
[2]; [22]
  cell count rep 1: 3417
[2]; [23]
  cell count rep 2: 4418
[2]; [24]
  cell count rep 3: 6627
[2]; Yes/No call from z-scoreHeLa
  cell death: No
[2]; [17]
  z-scoreHeLa mean: -0.43
[2]; [18]
  z-scoreHeLa rep 1: -1.23
[2]; [19]
  z-scoreHeLa rep 2: 0.11
[2]; [20]
  z-scoreHeLa rep 3: -0.16

## O=C(Nc1n[nH]c2cc(-c3ccccc3)ccc12)C1CC1 [SB-732941]
[1]; [25]
  effect: No
[1]; [7]
  hit: No
[1]; PKIS compound screen
  z-scoreMRSA+ mean: -0.19
  z-scoreMRSA+ rep 1: -0.15
  z-scoreMRSA+ rep 2: 0.30
  z-scoreMRSA+ rep 3: -0.74
[1]; [21]
  %GFP+ rep 1: 12.7%
  %GFP+ rep 2: 14.4%
  %GFP+ rep 3: 13.4%
[2]; [25]
  cell death: No
[2]; PKIS compound screen, mean of 3 replicates
  z-scoreHeLa mean: 0.28
[2]; PKIS compound screen, replicate 1
  z-scoreHeLa rep 1: 0.15
[2]; PKIS compound screen, replicate 2
  z-scoreHeLa rep 2: 0.37
[2]; PKIS compound screen, replicate 3
  z-scoreHeLa rep 3: 0.31
[2]; [22]
  cell count rep 1: 4945
[2]; [23]
  cell count rep 2: 4760
[2]; [24]
  cell count rep 3: 7601
